Nine compounds from patent EP4140481A1, “PROTEIN-OLIGOMER BINDING AGENTS AND THERAPEUTIC USES THEREOF” (Galyan Bio, Inc., priority 2021, dated 2023) can be followed below.

Data set [1] deals with zebrafish larvae. Put plainly: Motility Zebrafish Model (MPP+ exposure, photomotor assay and sleep). The following applies: 500 µM MPP+ alone (naïve 40.8).
Method: Six groups were included in each experiment. Immediately after spawning, 40 embryos per group were allocated to a 24-well plate and system water (solvent) was added to all wells. […] MPP+ was prepared immediately prior to incubation and solutions were changed daily. At 120 hpf, drug treatment and MPP+ exposure was ceased and a 3X wash was performed with system water. Larvae were then relocated to 96-well plates for behavioral recording and placed in a separate recording room for 24-hour acclimation. Prior to behavioral recording, wells were fully replenished system water.
Naive group was exposed to solvent only. Vehicle group was exposed to solvent and vehicle corresponding to the vehicle of 20 µM drug solution (0.02% DMSO). MPP+ positive control was exposed to solvent and 500 µM MPP+.
Behavioral data was recorded from 1 p.m. on 6 dpf until shortly after wakening on 7 dpf. The recording consisted of a photomotor assay in which lights switch off and on in 30-minute intervals between 1 p.m. and 6 p.m., producing a consistent photomotor response. […] Upon lights being turned on again, the larvae cease movement followed by a return to baseline. This cycle is repeated five times. Following the last lights-off phase, constant illumination is presented until lights turn off at 10 p.m. for the night. Lights turn on again at 8 a.m. the following day.
Average movement frequency was measured during 30-minute lights-on phases of photomotor assay.
Distance moved (mm) was defined as the average distance moved during 30-minute lights-on phases of photomotor assay.
All data are presented as mean ± standard error of the mean (sem). For analysis of differences between groups, a Kruskal-Wallis one-way ANOVA with Dunn's multiple comparison post hoc test was performed. P < 0.05 was considered statistically significant.
Data set [2] deals with Mur16 and/or Mur46. The data set can be described thus: Biacore Surface Plasmon Resonance (SPR) screening, binding to the target structures. To be noted: for Biacore affinity: primary screen, compounds that demonstrated binding to Mur16 and/or Mur46; for Binding properties: third analog screening, binding to the target structure in comparison to parent compound. On the procedure:
(§1) Exon 1 of the HTT huntingtin (NCBI Gene ID 3064) was expressed as a fusion protein with (i) TRX only (MurTRX); (ii) 16Q (Mur16); and (iii) 46Q (Mur46). MurTRX, Mur16, and Mur46 were produced and purified by HIStag and size exclusion chromatography (SEC). The protocol for MurTRX, Mur16 and Mur46 expression was adopted from Bennett, M.J. et al. Proc. Natl. Acad. Sci. USA 99, 11634-11639. 2002.
Primary Screen - Results - 39 compounds determined from the in-silico screen were tested. Following solvent correction and blank subtraction, double referenced binding levels for samples were plotted against binding levels on both Mur 16 and Mur 46. […] The 4 compounds consistently bind with a higher response on the 16 Q surface than the 46 Q repeat surface, despite the MAb positive control showing the opposite trend.
For orientation: Surface plasmon resonance follows binding to a sensor surface in real time, without labels.

Data set [3] has as its system STHdh 7/7 striatal cells. Put plainly: Cell viability after heat shock (CellTiter Glo). The format is cell-based. To be noted: Mus musculus, 48 hours treatment, percentage in comparison to pre-heat shock cell viability, read-out: Cell Viability striatal cells 3h heat shocked. On the procedure:
RESULTS-Table 12bsummarizes the effect of the compounds on cell viability. STHdh 7/7 were heat shocked for 3 hours and treated for 48 hours with small molecule compounds. Table 12b lists the cell viability in striatal cells after 48 hours.
Effect of Compound 22 on Cell Viability of Wildtype Striatal Neurons - STHdh 7/7 cells are striatal cells that express wildtype huntingtin. These cells were cultured in the same conditions as described above for STHdh 111/111. The neurons were first heat shocked for 3 hours at 41 °C as described above. After 48 hours of treatment with the small molecule Compounds, cell viability was determined using the method described above. The "buffer" control is represents cells treated with a buffer only, without any compounds added. Some of the compounds show higher cell viability in comparison to control heat shocked STHdh 7/7 neurons with buffer and no treatment (Figure 5).
On the technique in general: In ATP-based viability assays light output follows the ATP content of the culture.

For data set [4], the system named is STHdh 111/111 striatal cells. Put plainly: Cell viability after heat shock (CellTiter Glo). The following applies: Mus musculus, read-out: Cell Viability striatal cells 3h heat shocked.
Method: Cell culture - ST HDH Q111/111 (CH00095, Coriell Institute) striatal derived cell line were grown at 33°C in DMEM (Sigma-Aldrich), supplemented with 10% fetal bovine serum (FBS), 1% Penicillin-Streptomycin (ThermoFisher Scientific), and 0.4 mg/ml G418 (Geneticin; Invitrogen). ST HDH Q111/111 are mouse striatal cells with polyQ length of 111.
Pre-Treatment of striatal cell line - First the medium was removed and new DMEM (DMEM, high glucose, HEPES, no phenol red) medium, supplemented with 10% fetal bovine serum (FBS), 1% Penicillin-Streptomycin, containing 10 µM compound was added. The cells were incubated at 33 °C for 24 hours.
Heat shock - Cells were heat shocked for 3 hours at 41 °C.
Treatment - Medium was removed and new DMEM (DMEM, high glucose, HEPES, no phenol red) medium, supplemented with 1% fetal bovine serum (FBS), 1% Penicillin-Streptomycin, containing 10 µM compound was added. The cells were incubated at 33 °C for 48 hours.
Cell Viability - Cell viability was measured according to manufacturer recommendations with CellTiter Glo (Promega).
For data set [5], the target named is T1, mHTT (Homo sapiens, UniProt P42858).
T1 construct: host or cells: ST HDH Q111/111 mouse striatal cell line (knock-in locus)
Put plainly: mHTT levels in striatal cells (immunocytochemistry). The format is cell-based, mouse. To be noted: STHdh 111/111; 10 µM; 3 hours heat shock, 48 hours treatment; percentage in comparison to untreated STHdh 111/111; 3B5H10 antibody; read-out: mHTT after treatment. On the procedure: (§2) Staining - Cells were permeabilized with 0.3% Triton X-100 in 4 °C PBS (pH 7.4 from ThermoFisher) for 10 minutes. Then the cells were washed two times with 4 °C PBS. Subsequently, cells are blocked with 3% NGS (normal goat serum from Thermo Fisher) in 4 ° C PBS for 1 hour. Cells were incubated with primary antibodies in blocking buffer (PBS, 3% NGS, 0.02% NaN3) over night at 4 °C. Primary antibodies were mouse antipolyglutamine monoclonal antibody 3B5H10 (Sigma-Aldrich) at 1:250 dilution and Guinea Pig anti-MAP2 polyclonal antibody (Synaptic Systems) at 1:500 dilution. 3B5H10 binds to diffuse mHTT. Diffuse mHTT is a monomeric and small oligomeric mHTT. Diffuse mHTT is correlated to pathological parameters in Huntington's disease. Compounds that bind the mHTT will reduce the levels of diffuse mHTT detected.
Cells were washed 2 times with 4 °C PBS, and then incubated with secondary antibodies at 1:2000 dilution in blocking buffer for 1hour at room temperature. […] Cells were washed 2 times with 4 °C PBS, and then the nuclei were counterstain with DAPI (ThermoFisher) for 10 min at room temperature in the dark. Cells were washed 2 times with 4 °C PBS, and then 4 °C PBS was added to cells and then images were acquired. […] Table 11: Antibodies Used in Immunocytochemistry Studies
Fluorescence Imaging - Imaging sessions were performed on a confocal microscope system (Carl Zeiss Microscopy) equipped with a dual spinning disk unit (Yokogawa). All components of the imaging system were controlled via the ZEN 2 software suite (Carl Zeiss Microscopy). The laser lines used were 405 nm, 488 nm and 639 nm to excite DAPI or the respective fluorophores. […] Nested t test was performed to calculate the significance amongst repeated measurements using GraphPad Prism software.
as §2, with “For LC3 staining primary antibodies were mouse anti-LC3 mab (5F10) (nanoTools) at 1:500 dilution” for “3B5H10 binds to diffuse mHTT. Diffuse mHTT is a monomeric”, “Guinea Pig anti-MAP2 polyclonal antibody (Synaptic Systems) at 1:500 dilution.” for “small oligomeric mHTT. Diffuse mHTT is correlated to pathological parameters in Huntington's disease. Compounds that bind the mHTT will reduce the levels of diffuse mHTT detected.”
Cells were washed 2 times with 4 °C PBS, and then incubated with secondary antibodies at 1:2000 dilution in blocking buffer for 1hour at room temperature. […] Cells were washed 2 times with 4 °C PBS, and then the nuclei were counterstain with DAPI (ThermoFisher) for 10 min at room temperature in the dark. Cells were washed 2 times with 4 °C PBS, and then 4 °C PBS was added to cells and then images were acquired.
EC 50 value was determined with non-linear regression.

In data set [6] the target is T2, Mur46 (Homo sapiens, UniProt P42858, INS38QQQQQQQQQQQQQQQQQQQQQQQQQ).
T2 construct: linker […]; made in house; host or cells: E. coli BL21(DE3) plysE, pET28a+
Put plainly: Biacore SPR, Mur46 coupled flow cell. The following applies: binding to Mur46; 0.1 mM compound concentration.
Text: as §1
Biacore Affinity Values for Binding of Compounds to Mur46

T2 sequence (P42858 with tags, fused parts or gaps with the stated changes limits assumed): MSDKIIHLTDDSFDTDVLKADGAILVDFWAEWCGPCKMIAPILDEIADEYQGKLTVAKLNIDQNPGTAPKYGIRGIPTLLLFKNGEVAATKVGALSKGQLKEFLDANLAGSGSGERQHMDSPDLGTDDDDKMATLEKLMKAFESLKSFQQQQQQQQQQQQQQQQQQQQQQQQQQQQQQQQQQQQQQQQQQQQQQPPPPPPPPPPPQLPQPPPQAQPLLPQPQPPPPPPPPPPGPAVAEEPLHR
T1 sequence (P42858 with tags, fused parts or gaps with the stated changes): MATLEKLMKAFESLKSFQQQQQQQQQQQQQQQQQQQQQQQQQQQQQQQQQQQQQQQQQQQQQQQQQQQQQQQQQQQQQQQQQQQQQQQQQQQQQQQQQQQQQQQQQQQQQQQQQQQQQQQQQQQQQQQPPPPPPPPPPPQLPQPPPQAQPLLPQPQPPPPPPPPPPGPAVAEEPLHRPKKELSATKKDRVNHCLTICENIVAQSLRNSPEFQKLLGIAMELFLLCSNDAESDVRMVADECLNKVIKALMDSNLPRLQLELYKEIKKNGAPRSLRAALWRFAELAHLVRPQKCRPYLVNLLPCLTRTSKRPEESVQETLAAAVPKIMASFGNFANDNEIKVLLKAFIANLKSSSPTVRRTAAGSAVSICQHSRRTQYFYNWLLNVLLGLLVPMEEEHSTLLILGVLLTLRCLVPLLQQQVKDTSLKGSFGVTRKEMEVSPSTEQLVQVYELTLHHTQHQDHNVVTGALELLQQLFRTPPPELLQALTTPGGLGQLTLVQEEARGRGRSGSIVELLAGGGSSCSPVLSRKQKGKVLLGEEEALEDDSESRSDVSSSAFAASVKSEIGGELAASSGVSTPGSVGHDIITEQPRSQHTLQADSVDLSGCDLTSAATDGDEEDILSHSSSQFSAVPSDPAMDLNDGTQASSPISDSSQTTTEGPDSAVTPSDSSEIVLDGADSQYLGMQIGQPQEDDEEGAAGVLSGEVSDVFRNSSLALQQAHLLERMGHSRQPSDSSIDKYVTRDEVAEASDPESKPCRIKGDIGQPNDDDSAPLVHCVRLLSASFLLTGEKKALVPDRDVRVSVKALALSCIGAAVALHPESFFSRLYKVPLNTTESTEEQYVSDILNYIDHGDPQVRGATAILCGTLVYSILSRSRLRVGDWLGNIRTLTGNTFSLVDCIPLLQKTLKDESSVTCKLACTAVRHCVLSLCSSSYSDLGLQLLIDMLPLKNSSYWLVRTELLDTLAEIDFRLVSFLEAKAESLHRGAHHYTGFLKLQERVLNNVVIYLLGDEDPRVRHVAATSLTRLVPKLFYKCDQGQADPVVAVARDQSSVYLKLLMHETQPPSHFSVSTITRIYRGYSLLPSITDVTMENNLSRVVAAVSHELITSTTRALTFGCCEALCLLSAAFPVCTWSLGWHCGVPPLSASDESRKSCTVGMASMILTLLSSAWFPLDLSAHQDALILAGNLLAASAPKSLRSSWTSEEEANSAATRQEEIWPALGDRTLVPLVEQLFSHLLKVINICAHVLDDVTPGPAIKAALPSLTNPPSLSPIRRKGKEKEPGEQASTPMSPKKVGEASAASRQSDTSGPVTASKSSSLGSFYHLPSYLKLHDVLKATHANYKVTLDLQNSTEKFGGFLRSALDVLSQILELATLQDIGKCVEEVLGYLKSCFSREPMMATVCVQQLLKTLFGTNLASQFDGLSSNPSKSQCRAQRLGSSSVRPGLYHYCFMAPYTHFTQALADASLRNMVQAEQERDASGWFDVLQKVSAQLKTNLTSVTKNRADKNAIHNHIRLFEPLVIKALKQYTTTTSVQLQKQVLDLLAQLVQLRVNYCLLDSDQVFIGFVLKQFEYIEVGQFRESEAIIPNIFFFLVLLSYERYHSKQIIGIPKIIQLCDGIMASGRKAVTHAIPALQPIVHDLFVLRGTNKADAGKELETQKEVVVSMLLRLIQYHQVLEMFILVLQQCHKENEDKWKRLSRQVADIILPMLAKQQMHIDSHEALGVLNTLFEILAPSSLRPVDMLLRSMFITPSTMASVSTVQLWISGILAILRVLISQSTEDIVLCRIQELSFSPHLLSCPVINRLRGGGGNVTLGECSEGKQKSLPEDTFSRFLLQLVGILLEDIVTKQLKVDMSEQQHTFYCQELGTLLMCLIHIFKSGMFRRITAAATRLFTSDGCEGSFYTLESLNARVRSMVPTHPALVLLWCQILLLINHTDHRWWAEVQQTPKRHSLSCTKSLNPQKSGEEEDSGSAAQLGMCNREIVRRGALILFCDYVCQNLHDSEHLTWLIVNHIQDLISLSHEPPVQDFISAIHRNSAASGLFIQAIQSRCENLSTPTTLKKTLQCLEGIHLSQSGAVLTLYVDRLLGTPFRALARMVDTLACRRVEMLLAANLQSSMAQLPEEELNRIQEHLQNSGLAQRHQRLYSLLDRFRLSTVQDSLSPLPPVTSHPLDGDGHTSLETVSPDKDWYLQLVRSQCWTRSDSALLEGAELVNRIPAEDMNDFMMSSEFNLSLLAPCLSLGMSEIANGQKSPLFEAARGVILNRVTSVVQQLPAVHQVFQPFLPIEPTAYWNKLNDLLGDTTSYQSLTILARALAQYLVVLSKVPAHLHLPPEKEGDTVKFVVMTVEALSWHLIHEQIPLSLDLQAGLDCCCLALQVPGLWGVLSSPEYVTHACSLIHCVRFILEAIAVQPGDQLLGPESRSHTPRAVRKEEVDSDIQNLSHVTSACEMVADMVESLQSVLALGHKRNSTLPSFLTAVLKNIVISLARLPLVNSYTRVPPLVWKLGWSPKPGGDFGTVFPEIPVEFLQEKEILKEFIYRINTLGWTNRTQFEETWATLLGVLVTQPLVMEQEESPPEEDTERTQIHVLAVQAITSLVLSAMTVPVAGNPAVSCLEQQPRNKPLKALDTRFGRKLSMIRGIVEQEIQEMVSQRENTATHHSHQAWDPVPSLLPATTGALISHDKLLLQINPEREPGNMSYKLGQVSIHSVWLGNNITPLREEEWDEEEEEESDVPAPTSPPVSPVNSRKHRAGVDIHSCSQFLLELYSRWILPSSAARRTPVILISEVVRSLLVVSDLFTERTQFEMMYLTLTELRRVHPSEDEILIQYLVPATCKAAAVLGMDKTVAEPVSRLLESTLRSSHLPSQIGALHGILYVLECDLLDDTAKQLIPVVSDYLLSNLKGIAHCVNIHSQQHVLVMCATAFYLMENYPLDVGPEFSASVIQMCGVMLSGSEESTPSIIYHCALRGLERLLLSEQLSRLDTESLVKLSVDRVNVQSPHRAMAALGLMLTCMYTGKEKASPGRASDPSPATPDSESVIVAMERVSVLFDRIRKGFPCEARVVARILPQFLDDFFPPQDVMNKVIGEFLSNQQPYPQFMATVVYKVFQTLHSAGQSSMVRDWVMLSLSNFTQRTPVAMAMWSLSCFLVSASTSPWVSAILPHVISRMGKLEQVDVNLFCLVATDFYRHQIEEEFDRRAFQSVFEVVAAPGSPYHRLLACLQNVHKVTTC

For the compound `C[n+]1ccc(-c2ccccc2)cc1` [MPP+, 1-methyl-4-phenylpyridinium, reference compound], the movement frequency in data set [1] is 13.3 movement bouts in 30 minutes. In turn, `Cc1[nH]c2ccccc2c1[C@]1(O)C(=O)Nc2c(Br)cc(Br)cc21` [Compound 110] registered a Biacore affinity in data set [2] of 80 RU^2.

For `O=C(O)C1Cc2c([nH]c3ccccc23)C(c2cccc(Br)c2)N1` (stereo not drawn) [Compound 109], the Biacore affinity in data set [2] came out at 3 RU^2. For `CC(C)N(CCNC(=O)c1ccc2[nH]c3c(c2c1)CCCC3)C(C)C` [Compound 57], the Binding properties entry in data set [2] was “++”.

For the compound `Cc1[nH]c2ccc(C(=O)NCC(=O)NC(C)C)cc2c1C` [Compound 113], the Biacore affinity in data set [2] is on record as 160 RU^2. With `Cc1[nH]c2ccc(C(=O)NCCN3CCOCC3(C)C)cc2c1C` [Compound 28], the results for the viability at 10 µM in data set [3] and in data set [4] were 52.4% and 18%, respectively. Besides, the remaining activity at 10 µM in data set [5] worked out at 51%. With `Cc1[nH]c2ccc(C(=O)Nc3ccccc3NC3CCN(C)CC3)cc2c1C` [Compound 103], in data set [2], the Binding properties entry is “++”. Take `Cc1[nH]c2ccc(C(=O)N(C)CCN(C)C3CC3)cc2c1C` [Compound 114]: the Binding properties result in data set [2] was “+/-”. Further, in data set [6], the Biacore affinity came out at 20 RU^2. As to `Cc1[nH]c2ccc(C(=O)NCCN(C)C3CCCC3)cc2c1C` [Compound 105], the Binding properties result in data set [2] is “++”.
